# Assay results published in PubChem BioAssay AID1845206 (Molecular Pharmacology Branch, DTP, NCI, 2023).
# Test system: NCI-H1618 multicellular tumor spheroid viability
# Assay: Anticancer human tumor NCI-H1618 cell line growth inhibition;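 note: spheroids exposed to agents for 7 days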
# Details: for IC50: curve of first compound; for viability, T/C: stronger effect = lower value
# Outline: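 Complex tumor spheroids combined malignant cells with endothelial cells and mesenchymal stem cells. DNA-damaging drugs and DNA repair inhibitors were tested alone and in combination, at half-log dilutions down from clinical Cmax (top 10 microM if Cmax unknown), 0.25% DMSO final.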
# [1] = second compound 30 pM, first compound 0.00949 µM
# [2] = second compound 30 pM, first compound 0.03 µM
# [3] = second compound 30 pM, first compound 0.0949 µM
# [4] = second compound 30 pM, first compound 0.3 µM
# [5] = second compound 30 pM, first compound 0.949 µM
# [6] = second compound 30 pM, first compound 3 µM
# [7] = second compound 94.9 pM, first compound 0.00949 µM
# [8] = second compound 94.9 pM, first compound 0.03 µM
# [9] = second compound 94.9 pM, first compound 0.0949 µM
# [10] = second compound 94.9 pM, first compound 0.3 µM
# [11] = second compound 94.9 pM, first compound 0.949 µM
# [12] = second compound 94.9 pM, first compound 3 µM
# [13] = second compound 0.0003 µM, first compound 0.00949 µM
# [14] = second compound 0.0003 µM, first compound 0.03 µM
# [15] = second compound 0.0003 µM, first compound 0.0949 µM
# [16] = second compound 0.0003 µM, first compound 0.3 µM
# [17] = second compound 0.0003 µM, first compound 0.949 µM
# [18] = second compound 0.0003 µM, first compound 3 µM
# [19] = second compound 0.000949 µM, first compound 0.00949 µM
# [20] = second compound 0.000949 µM, first compound 0.03 µM
# [21] = second compound 0.000949 µM, first compound 0.0949 µM
# [22] = second compound 0.000949 µM, first compound 0.3 µM
# [23] = second compound 0.000949 µM, first compound 0.949 µM
# [24] = second compound 0.000949 µM, first compound 3 µM
# [25] = second compound 0.003 µM, first compound 0.00949 µM
# [26] = second compound 0.003 µM, first compound 0.03 µM
# [27] = second compound 0.003 µM, first compound 0.0949 µM
# [28] = second compound 0.003 µM, first compound 0.3 µM
# [29] = second compound 0.003 µM, first compound 0.949 µM
# [30] = second compound 0.003 µM, first compound 3 µM
SMILES,IC50 (second compound 30 pM),IC50 (second compound 94.9 pM),IC50 (second compound 0.0003 µM),IC50 (second compound 0.000949 µM),IC50 (second compound 0.003 µM),"viability, T/C [3]","viability, T/C [4]","viability, T/C [5]","viability, T/C [6]","viability, T/C [9]","viability, T/C [10]","viability, T/C [11]","viability, T/C [12]","viability, T/C [15]","viability, T/C [16]","viability, T/C [17]","viability, T/C [18]","viability, T/C [21]","viability, T/C [22]","viability, T/C [23]",also measured
CNCc1ccc(-c2cc(-c3nc(-c4ccc(S(=O)(=O)C(C)C)cc4)cnc3N)on2)cc1 + COc1cc2c(cc1O)CCNC21CSC2c3c(OC(C)=O)c(C)c4c(c3C(COC1=O)N1C(O)C3Cc5cc(C)c(OC)c(O)c5C(C21)N3C)OCO4,224 nM,130 nM,< 9.49 nM,< 9.49 nM,< 9.49 nM,110%,31.5%,5.25%,3.91%,59.5%,22.3%,2.88%,2.64%,58.8%,12.6%,2.49%,4.13%,6.24%,3.07%,3.69%,"viability, T/C [1]: 103%; viability, T/C [2]: 100%; viability, T/C [7]: 98.5%; viability, T/C [8]: 93.6%; viability, T/C [13]: 11.2%; viability, T/C [14]: 17.8%; viability, T/C [19]: 3.91%; viability, T/C [20]: 15.3%; viability, T/C [24]: 2.71%; viability, T/C [25]: 3.93%; viability, T/C [26]: 6.21%; viability, T/C [27]: 4.41%; viability, T/C [28]: 3.43%; viability, T/C [29]: 2.55%; viability, T/C [30]: 0.78%"
Cc1sc2c(c1C)C(c1ccc(Cl)cc1)=NC(CC(=O)Nc1ccc(O)cc1)c1nnc(C)n1-2 (stereo not given) + COc1cc2c(cc1O)CCNC21CSC2c3c(OC(C)=O)c(C)c4c(c3C(COC1=O)N1C(O)C3Cc5cc(C)c(OC)c(O)c5C(C21)N3C)OCO4,275 nM,157 nM,< 9.49 nM,< 9.49 nM,< 9.49 nM,93.5%,45.9%,11.1%,2.15%,63.9%,29.9%,3.78%,1.08%,10.2%,11.7%,0.74%,0.78%,1.78%,0.74%,0.65%,"viability, T/C [1]: 86.2%; viability, T/C [2]: 116%; viability, T/C [7]: 72.2%; viability, T/C [8]: 84.4%; viability, T/C [13]: 22.7%; viability, T/C [14]: 2.53%; viability, T/C [19]: 4.7%; viability, T/C [20]: 2.6%; viability, T/C [24]: 0.37%; viability, T/C [25]: 2.16%; viability, T/C [26]: 2.42%; viability, T/C [27]: 0.82%; viability, T/C [28]: 0.41%; viability, T/C [29]: 0.26%; viability, T/C [30]: 0.46%"
Cn1ncnc1[C@H]1c2n[nH]c(=O)c3cc(F)cc(c23)N[C@@H]1c1ccc(F)cc1 + COc1cc2c(cc1O)CCNC21CSC2c3c(OC(C)=O)c(C)c4c(c3C(COC1=O)N1C(O)C3Cc5cc(C)c(OC)c(O)c5C(C21)N3C)OCO4,45.4 nM,< 9.49 nM,< 9.49 nM,< 9.49 nM,< 9.49 nM,53%,10.2%,2.52%,3.76%,3.24%,2.22%,2.54%,4.25%,2.76%,2.88%,3.67%,2.53%,3.71%,4.08%,3.69%,"viability, T/C [1]: 95.5%; viability, T/C [2]: 46.9%; viability, T/C [7]: 44.3%; viability, T/C [8]: 37.8%; viability, T/C [13]: 10.6%; viability, T/C [14]: 5.28%; viability, T/C [19]: 4.52%; viability, T/C [20]: 4.93%; viability, T/C [24]: 4.06%; viability, T/C [25]: 2.91%; viability, T/C [26]: 4.29%; viability, T/C [27]: 5.46%; viability, T/C [28]: 2.85%; viability, T/C [29]: 3.44%; viability, T/C [30]: 2.38%"
O=C(c1cc(Cc2n[nH]c(=O)c3ccccc23)ccc1F)N1CCN(C(=O)C2CC2)CC1 + COc1cc2c(cc1O)CCNC21CSC2c3c(OC(C)=O)c(C)c4c(c3C(COC1=O)N1C(O)C3Cc5cc(C)c(OC)c(O)c5C(C21)N3C)OCO4,5700 nM,1830 nM,< 94.9 nM,< 94.9 nM,< 94.9 nM,103%,97.2%,98.2%,88.1%,85.7%,76.1%,96.7%,22.7%,11.3%,2.62%,33.6%,22%,4.82%,3.59%,4.37%,"viability, T/C (second compound 30 pM, first compound 9.49 µM): 19.8%; viability, T/C (second compound 30 pM, first compound 30 µM): 5.66%; viability, T/C (second compound 94.9 pM, first compound 9.49 µM): 11.6%; viability, T/C (second compound 94.9 pM, first compound 30 µM): 5.96%; viability, T/C (second compound 0.0003 µM, first compound 9.49 µM): 3.44%; viability, T/C (second compound 0.0003 µM, first compound 30 µM): 6.61%; viability, T/C [24]: 3.86%; viability, T/C (second compound 0.000949 µM, first compound 9.49 µM): 3.51%; viability, T/C (second compound 0.000949 µM, first compound 30 µM): 3.9%; viability, T/C [27]: 2.74%; viability, T/C [28]: 2.65%; viability, T/C [29]: 3.06%; viability, T/C [30]: 3.24%; viability, T/C (second compound 0.003 µM, first compound 9.49 µM): 3.55%; viability, T/C (second compound 0.003 µM, first compound 30 µM): 3.23%"
